Test [1] deals with SH-SY5Y cells. In words: Cell death (LDH release) in hydrogen peroxide-treated SH-SY5Y cells. Type of test: cell-based. The settings on record: LDH release normalized to vehicle (=100); hydrogen peroxide 300 μM, 24 h; compounds at 10 nM. As for the experimental part: (§1) SH-SY5Y cells cultured in DMEM/F12 media supplemented with 10% FBS were seeded in 96-well microplates at 150,000 cells/cm^2. After 24 h, cells were depleted from FBS and kept in culture for 24 h before the experiment. Cells were then treated with 4-Br-A23187 (2 μM), hydrogen peroxide (300 μM) or the mitochondrial toxin rotenone (25 μM) in the presence of vehicle or Compound of the Invention for 24 h. Cell death was determined by measurements of LDH release according to the Cytotoxicity Detection KitPlus (Roche, Mannheim, Germany). Cell viability was determined by measuring the capacity of cells to metabolize MTS tetrazolium (MTS) according to the Cytotoxicity Detection KitPlus (Roche, Mannheim, Germany) and MTS reduction is assessed by the CellTiter 96® AQueous One Solution Cell Proliferation assay (Promega Corporation, Madison, Wis., USA). Compounds were screened at 10 nM, using DMSO as vehicle. Assay results for the experiments with hydrogen peroxide are presented as the LDH release (cell death) of untreated cells (control), hydrogen peroxide-treated cells (vehicle), and co-incubation of hydrogen peroxide with Compounds of the Invention treated cells normalized to the vehicle (FIG. 17A). This assay assesses the ability of the test compounds to protect against cell death that is mediated by mitochondrial dysfunction. In the assay, the calcium ionophore 4-Br-A23187 is used to challenge the cells, causing calcium levels to rise in mitochondria, which leads to depolarization and cell death. Test compounds are assessed for their ability to prevent cell death in response to challenge with 4-Br-A23187.

For test [2], the system named is SH-SY5Y cells. In words: Cell viability (MTS reduction) in 4-Br-A23187-treated SH-SY5Y cells. The settings on record: MTS reduction capacity; 4-Br-A23187 2 μM, 24 h; compounds at 10 nM. Type of test: cell-based. The procedure:
as §1, with “After” for “SH-SY5Y cells cultured in DMEM/F12 media supplemented with 10% FBS were seeded in 96-well microplates at 150,000 cells/cm^2. After”

The subject of test [3] is SH-SY5Y cells over-expressing α-syn. Briefly: Cell viability (MTS reduction) in SH-SY5Y cells over-expressing α-synuclein. Type of test: cell-based. The settings on record: Homo sapiens, 336 h, α-syn over-expression (−dox), +dox control = 100, 14 days, read-out: Relative cell viability protection. The procedure:
Cell Culture. SH-SY5Y cells stably transfected with a doxycyline-inducible wild-type α-synuclein (α-syn) gene along with control SH-SY5Y cells over-expressing the β-galactosidase (β-gal) gene (a gift from L. Stefanis, Division of Basic Neurosciences, Biomedical Research Foundation of the Academy of Athens, Athens, Greece) are cultured as described by Vekrellis et al. (Vekrellis K, Xilouri M, Emmanouilidou E, Stefanis L. (2009). Inducible over-expression of α-syn in human neuronal cells leads to caspase-dependent non-apoptotic death. J Neurochem 109, 1348-1362). In accordance with this method, cells are cultured and maintained in RPMI 1640, 10% fetal bovine serum supplemented with 250 μg/mL G418 and 50 μg/mL Hygromycin B. Expression of α-syn is switched off in stock cultures with doxycycline (2 μg/mL). For experimental procedures, cells are plated at (4−8×10^4 cells/cm^2) and differentiated in absence of doxycycline and in the presence of 20 μM all-trans retinoic acid (RA) (Sigma, St Louis, Mo., USA).
Viability Assay: Cells are cultured in 96-well plates. After 24 h, cells are treated with RA and Compounds of Invention at 0.1 and 10 nM in the absence of doxycyline. Culture medium with RA and drugs is fully replaced after 7 days. Cell viability is measured by the release of lactate dehydrogenase (LDH) from necrotic cells into the culture medium and by measuring the capacity of cells to metabolize MTS tetrazolium (MTS) after 14 days in culture. LDH leakage is assessed according to the Cytotoxicity Detection KitPlus (Roche, Mannheim, Germany) and MTS reduction is assessed by the CellTiter 96® AQueous One Solution Cell Proliferation assay (Promega Corporation, Madison, Wis., USA).
Assay results for the experiments with α-syn over-expression are presented as the MTS reduction capacity (cell viability) of control cells (+dox), cells over-expressing α-syn (−dox), and cells over-expressing α-syn incubated with Compounds of the Invention at 0.1 nM (FIG. 18A) or 10 nM (FIG. 18B).

The target in test [4] is T1, human recombinant adrenergic α2B receptor (Homo sapiens, UniProt P18089).
T1 construct: expressed in transfected cells; host or cells: CHO-K1
T1 sequence (P18089 1-450): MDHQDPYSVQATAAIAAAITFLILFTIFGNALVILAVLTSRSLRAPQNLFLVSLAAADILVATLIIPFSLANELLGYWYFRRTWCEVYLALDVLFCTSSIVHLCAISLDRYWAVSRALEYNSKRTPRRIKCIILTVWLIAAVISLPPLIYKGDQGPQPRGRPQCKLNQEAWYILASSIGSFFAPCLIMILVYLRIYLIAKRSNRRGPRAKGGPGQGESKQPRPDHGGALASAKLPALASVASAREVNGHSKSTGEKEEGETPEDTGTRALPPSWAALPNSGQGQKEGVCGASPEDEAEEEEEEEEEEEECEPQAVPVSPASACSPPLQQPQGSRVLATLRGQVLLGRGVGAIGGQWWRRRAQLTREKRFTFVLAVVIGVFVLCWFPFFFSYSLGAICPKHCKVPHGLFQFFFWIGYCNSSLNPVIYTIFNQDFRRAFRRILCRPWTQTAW
Briefly: Radioligand binding, adrenergic α2B ([3H]Rauwolscine). To be noted: [3H]Rauwolscine, repeat assays, each datapoint shown. The essentials:
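Values are percent inhibition of specific radioligand binding. The receptor, expressed in CHO-K1 cells, was exposed to 2.5 nM [3H]Rauwolscine at 25° C for 60 min, with 10 μM Prazosin marking non-specific binding.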

The target of test [5] is T2, rat adrenergic α1B receptor (Rattus norvegicus, UniProt P15823).
T2 construct: rat adrenergic α1B receptor obtained from Wistar Rat liver; from tissue; host or cells: Wistar rat liver
T2 sequence (P15823 1-515): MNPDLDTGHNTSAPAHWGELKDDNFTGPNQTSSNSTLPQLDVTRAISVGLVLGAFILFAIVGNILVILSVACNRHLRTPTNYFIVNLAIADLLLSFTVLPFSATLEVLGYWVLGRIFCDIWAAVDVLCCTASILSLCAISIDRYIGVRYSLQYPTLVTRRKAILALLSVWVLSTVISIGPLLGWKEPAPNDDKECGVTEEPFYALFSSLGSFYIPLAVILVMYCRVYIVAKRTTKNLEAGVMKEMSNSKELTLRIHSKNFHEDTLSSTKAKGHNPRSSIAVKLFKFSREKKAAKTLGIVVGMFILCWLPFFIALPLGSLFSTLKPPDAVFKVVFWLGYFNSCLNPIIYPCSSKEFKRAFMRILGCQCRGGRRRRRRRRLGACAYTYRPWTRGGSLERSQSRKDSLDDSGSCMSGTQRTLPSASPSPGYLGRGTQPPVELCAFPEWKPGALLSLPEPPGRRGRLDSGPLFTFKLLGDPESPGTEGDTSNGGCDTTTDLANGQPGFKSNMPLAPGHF
Briefly: Radioligand binding, adrenergic α1B ([3H]Prazosin). To be noted: compound at 0.1 μM, [3H]Prazosin, repeat assays, each datapoint shown; for Percentage inhibition of ligand binding, Adrenergic α1B: 0.1 µM. The essentials: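 Incubation ran 60 min at 25 °C in Tris-HCl buffer (50 mM, pH 7.4, 0.5 mM EDTA) with Wistar rat liver α1B receptor. 10 μM phentolamine set non-specific binding.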

Test [6] deals with T3, human recombinant adrenergic α1D receptor (Homo sapiens, UniProt P25100).
T3 construct: expressed in transfected cells; host or cells: HEK-293
T3 sequence (P25100 1-572): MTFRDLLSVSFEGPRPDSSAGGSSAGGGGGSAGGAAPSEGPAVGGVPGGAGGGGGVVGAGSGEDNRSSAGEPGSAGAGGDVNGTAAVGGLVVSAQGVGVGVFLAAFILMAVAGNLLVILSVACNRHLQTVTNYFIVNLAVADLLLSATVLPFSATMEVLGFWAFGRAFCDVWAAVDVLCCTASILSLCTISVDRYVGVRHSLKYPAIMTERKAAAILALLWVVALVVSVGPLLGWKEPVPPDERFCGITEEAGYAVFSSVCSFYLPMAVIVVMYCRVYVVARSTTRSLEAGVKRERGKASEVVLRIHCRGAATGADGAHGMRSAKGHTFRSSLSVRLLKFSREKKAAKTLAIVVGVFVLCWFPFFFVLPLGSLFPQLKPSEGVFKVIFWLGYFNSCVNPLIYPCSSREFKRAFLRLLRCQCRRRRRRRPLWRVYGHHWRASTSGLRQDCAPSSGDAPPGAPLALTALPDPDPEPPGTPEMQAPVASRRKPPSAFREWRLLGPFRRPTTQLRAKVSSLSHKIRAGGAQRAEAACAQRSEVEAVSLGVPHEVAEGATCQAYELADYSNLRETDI
In words: Radioligand binding, adrenergic α1D ([3H]Prazosin). The settings on record: compound at 0.1 μM; [3H]Prazosin; repeat assays, each datapoint shown; read-out: Percentage inhibition of ligand binding, Adrenergic α1D. The procedure:
Compounds were incubated with 0.6 nM [3H]Prazosin for 60 min at 25° C. Non-specific binding was estimated in the presence of 10 μM phentolamine. Receptor proteins were filtered and washed, the filters were then counted to determine [3H]Prazosin specifically bound. […] Biochemical assay results are presented as the percent inhibition of specific binding in Table B1.

For test [7], the target named is T4, human recombinant adrenergic α2A receptor (Homo sapiens, UniProt P08913).
T4 construct: expressed in transfected cells; host or cells: insect Sf9 cells
T4 sequence (P08913 1-465): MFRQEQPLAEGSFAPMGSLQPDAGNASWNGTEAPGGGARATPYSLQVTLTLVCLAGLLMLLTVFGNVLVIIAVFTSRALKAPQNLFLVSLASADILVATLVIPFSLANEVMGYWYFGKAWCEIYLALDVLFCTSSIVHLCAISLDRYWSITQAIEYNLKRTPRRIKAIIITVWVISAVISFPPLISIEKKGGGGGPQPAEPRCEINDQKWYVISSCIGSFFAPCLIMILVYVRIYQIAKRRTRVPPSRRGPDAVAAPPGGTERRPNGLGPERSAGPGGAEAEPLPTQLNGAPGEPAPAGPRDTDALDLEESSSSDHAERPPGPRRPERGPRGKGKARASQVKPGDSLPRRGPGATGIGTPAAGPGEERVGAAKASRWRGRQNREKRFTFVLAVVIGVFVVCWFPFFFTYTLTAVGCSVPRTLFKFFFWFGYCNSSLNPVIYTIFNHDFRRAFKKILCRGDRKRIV
In words: Radioligand binding, adrenergic α2A ([3H]MK-912). The settings on record: compound at 0.1 μM; [3H]MK-912; repeat assays, each datapoint shown. The essentials:
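Sf9-expressed receptor was incubated with compound for 60 min at 25 °C in modified Tris-HCl buffer, pH 7.4. Nonspecific binding was taken as that remaining with 10 μM WB-4101.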

The structures appear in SMILES notation.

Results on three compounds are retold here after patent publication US8791132B2, “Compounds and methods for treatment of hypertension” (Medivation Technologies, Inc., priority 2011, dated 2014).

`Cc1ccc2c(c1)c1c(n2CCc2ccc(C)nc2)CCN(C)C1` [Dimebon (DMB), dimebon, reference compound]: the “LDH release (cell death), relative to vehicle” value in test [1] stood at 91.15. Further, the “Relative cell viability protection” value in test [2] came out at 0.3538. Besides, in test [3] (compounds at 0.1 nM), the viability at 0.0001 µM was 70.5%. Also, the viability at 0.01 µM in test [3] (compounds at 10 nM) is 85.7%.
In the case of `CN1CCc2c(c3cc(Cl)ccc3n2CC(O)c2ccncc2)C1` (stereo not shown) [compound 4], the inhibition at 0.1 µM stood at 101% in test [4] (compound at 0.1 μM, read-out: Percentage inhibition of ligand binding, Adrenergic α2B); 51% in test [5] (read-out: Percentage inhibition of ligand binding, Adrenergic α1B); 12% in test [6]. For the same compound, in test [5], the “Percentage inhibition of ligand binding, Adrenergic α1B” value came out at 60%. In test [2], the “Relative cell viability protection” value is 0.3463.
For `Cc1ccc2c(c1)c1c(n2CC(O)c2ccncc2)CCNC1` (stereo not shown) [compound 39, 2-(8-methyl-1,2,3,4-tetrahydro-pyrido[4,3-b]indol-5-yl)-1-pyridin-4-yl-ethanol], in test [4] (compound at 0.03 μM, 0.03 µM), the “Percentage inhibition of ligand binding, Adrenergic α2B” value was determined as 89%. The “Percentage inhibition of ligand binding, Adrenergic α2A” value in test [7] amounted to 1%. The “Percentage inhibition of ligand binding, Adrenergic α1B” value in test [5] was determined as 25%. In addition, the “Relative cell viability protection” value in test [2] is listed as 0.36.

Usually viability stands for a per cent measure of how many cells are alive, often set against a control. A word on the inhibition: it is the change of the read-out against control, counted positive when it falls.
